Experimental data as given in US20110112308A1 (NOVARTIS AG, priority 2006, published 2011).

Assay: Intrinsic dissolution rate, rotation disk method
Format: physicochemical
Description: Intrinsic Dissolution: […] […] Pellets of the other salts remained intact for at least several minutes enabling the determination of the intrinsic dissolution rate. Dissolution rate studies were performed using the rotation disk method ([…] Instrument). A single rotation speed of 200 r.p.m. was used to dissolve drug substance into a 500 mL vessel at 37° C. The solution was continuously pumped through a UV cell measurement and returned to the dissolution vessel.

Intrinsic Dissolution Rate (0.1N HCl (Table 19)): 0.13
Intrinsic Dissolution Rate (Water (Table 19)): 0.14
Intrinsic Dissolution Rate (pH = 4 (Table 19)): 0.09
SMILES: CC(O)C(=O)O.Cc1[nH]c2ccccc2c1CCNCc1ccc(/C=C/C(=O)NO)cc1 [Anhydrous DL-lactate salt, 1:1 anhydrous DL-lactate salt of N-hydroxy-3-[4-[[[2-(2-methyl-1H-indol-3-yl)ethyl]amino]methyl]phenyl]-2E-2-propenamide]
